In patent publication US20240207265A1, “TREATMENT OF CNS DISEASES WITH sGC STIMULATORS” (Tisento Therapeutics Inc., priority 2021, published 2024):

System: sleep-stage specific pharmaco-EEG
Assay: Sleep-wake pharmaco-EEG in telemeter-implanted rats
Assay type: in vivo, rat
From the text: Young adult male Sprague-Dawley (SD) rats (˜275-325 grams on arrival) from Envigo (Indianapolis, IN) were used in the study. Upon receipt, rats were assigned unique identification numbers and housed with 3 rats per cage in polycarbonate cages with micro-isolator filter tops. All rats were examined and weighed prior to initiation of the study to assure adequate health and suitability. During the course of the study, 12/12 light/dark cycles were maintained. The room temperature was maintained between […] and 23° C. with a relative humidity maintained around 50%. Chow and water were provided ad libitum for the duration of the study. Following surgery, rats were single housed. After a period of recovery (7-10 days), animals were transferred to an EEG recording room and placed over a DSI receiver for recordings.
• a. Vehicle A • i. Route: PO • ii. Volume: 10 ml/kg • iii. Formulation: Water • b. Compound I-14 at 3 mg/kg • i. Route: PO • ii. Volume: 10 ml/kg • iii. Formulation: 3 mg/kg in water • c. Compound I-14 at 10 mg/kg • i. Route: PO • ii. Volume: 10 ml/kg • iii. Formulation: 10 mg/kg in water • d. Compound I-14 at 30 mg/kg • i. Route: PO • ii. Volume: 10 ml/kg • iii. Formulation: 30 mg/kg in water
Briefly, animals were implanted with DSI Telemetry devices (F50-EET) in a 3 channel (lead pairs) configuration. Note the positive and negative lead placements for each location. Each of the EEG channels on the DSI transmitter functions as a differential input whereby the differential input measures the difference between the positive and negative leads. Frontal/Parietal (right): (+) 2 mm Anterior, 2 mm Lateral; (−) 4 mm Posterior, 2 mm Lateral; Frontal/Frontal (bihemispheric): (+) 2 mm Anterior, 2 mm Lateral (right); (−) 2 mm Anterior, 2 mm Lateral (left); and neck EMG.
This study followed a Monday and Thursday dosing/recording schedule, where Baseline EEG was recorded 2 hours and then rats received first dose of Compound I-14 at 0.3, 3 or 10 mg/kg or Vehicle A (all orally) between 7:50-8:00 AM and a second dose of the same after about 12 hours, and EEG continued 12 hours afterwards. • EEG Recordings began at 6 AM (at time lights turn on) • Dosing occurred at 7:50 am AM (1 hour 50 minutes after lights ON) • 2nd dosing (same compound) occurred at 7:50 PM (1 hour and 50 minutes after lights OFF) • EEG Recordings continued until 7:50 AM the following day (24 hours after 1st dose and 12 hours after 2nd dose).
Animals were tested in a cross-over design with at least 72-hour washout period between doses. On each testing day, animals received compound or vehicle orally just under 2 hours (7:50 AM) after lights on (6:00 AM). Data were recorded from 2 hours prior to dosing and recorded continuously for 24 hours post dose.
Raw EEG recordings were manually scored using Neuroscore software (Data Sciences International) to identify sleep stages: Active Wake, Quiet Wake, NREM and REM. Using NeuroScore (DSI), artifacts were removed offline from the data and sleep stages assigned manually for every 10 s epoch using EEG, EMG and Locomotor activity (LMA) by conventional methods as previously described (Ivarsson et al., 2005; Parmentier-Batteur et al., 2012; Leiser et al., 2014, 2015) using the fronto-parietal EEG, LMA and EMG: active wake (less regular, low-amplitude EEG with high EMG and LMA activity); quiet wake (less regular, low-amplitude EEG, with low EMG and no LMA activity); NREM (consisting of high-amplitude irregular waves with predominant delta (1-4 Hz), low EMG and no LMA); REM sleep (stable, low-amplitude waves dominated by theta (4-8 Hz) with near absent EMG and no LMA).
The sleep stage data were exported from a Neuroscore report template of sleep state time per each 15 min (2 hours pre-dose to 4 hours post-dose). The onset of the first sleep and first REM were also reported directly from a Neuroscore report template. […]

Cc1cc(F)c(Cc2nc(-c3ncc(F)c(O)n3)cn3ccnc23)cc1F [Compound I-14, 5-fluoro-2-(8-(2,5-difluoro-4-methylbenzyl)imidazo[1,2-a]pyrazin-6-yl)pyrimidin-4-ol] was tested, and the “EEG spectral power in QW” value (3 mg/kg PO) was “increased low gamma 0-180 minutes post dose”, the “EEG spectral power in QW” value (30 mg/kg PO) was “increased low gamma 0-240 and high gamma 0-180 minutes post dose” and the “EEG spectral power in NREM” value (30 mg/kg PO, ˜0-300 minutes post dose) was “decreased delta, theta, alpha and increased low and high gamma”. The “REM and NREM in hypnograms vs vehicle (A) group” value (high dose (30 mg/kg) PO) was “notable decrease in REM and NREM”, the “onset of NREM, REM and REM latency” value (high dose (30 mg/kg) PO) was “delayed” and the “Quiet Wake in hypnograms” value (highest dose (30 mg/kg) PO) was “increase in Quiet Wake”.
